Patent US20060252733A1, “Betulin, betulin derivatives, betulinic acid and betulinic acid derivatives as novel therapeutics in the treatment of disease of lipid and/or glucose metabolism” (Novelix Pharmaceuticals, Inc., priority 2005, published 2006)
Values joined by “and” are separate entries in the source; they are usually repeats but may differ in a detail not shown here. Equal entries are not always repeated.

Experiments:
[1] = test system: human lung cancer cell line (A549); assay: Global gene expression analysis (Affymetrix gene chips) after NVX-207 treatment; type: cell-based
Procedure: For global gene expression analysis, total RNA was isolated from sub-confluent cell cultures at 4 and 14 hours after addition of NVX-207. […] For each time point and concentration, respectively, total RNA form 3 equally treated cultures was pooled and used for gene chip analysis. The experiment was repeated once. Four and 14 hours after addition of NVX-207, cells were washed with PBS and lysed directly in the culture dish with RNA-Bee according to the manufacturers instructions. Total RNA was then analyzed by using Affymetrix gene chips according to the manufacturers instructions.

[2] = test system: human melanoma cell line (518A2); assay: Cell survival (cell counts) after 3 days of treatment; conditions: for Survival in %: 3 days, vs untreated controls (=100%)
Procedure: Induction of cell death was evaluated in a human melanoma cell line (518A2) in the presence of simvastatin and NVX-207 alone or in combination. […] After 3 days of treatment, cell numbers were counted. Percentages of survival given are cell numbers compared to untreated controls (=100%). Experiments were repeated three times. Mean values are given.

## C=C(C)[C@@H]1CC[C@]2(C(=O)OCC(N)(CO)CO)CC[C@]3(C)[C@H](CC[C@@H]4[C@@]5(C)CC[C@H](OC(C)=O)C(C)(C)[C@@H]5CC[C@]43C)[C@@H]12 [NVX-207]
[1]; 20 listed genes incl. LDL receptor, Insulin induced gene 1, 3-hydroxy-3-methylglutaryl-Coenzyme A reductase
  expression of the Table 1 genes with a functional role in lipid and/or glucose metabolism: NVX-207-Upregulated Genes with a Functional Role in Lipid
[1]; gene: 3-hydroxy-3-methylglutaryl-Coenzyme A synthase 1 (soluble)
  Fold-Induction: 1.63
[1]; gene: 24-dehydro-cholesterol reductase
  Fold-Induction: 1.25
[1]; gene: 216814_at
  Fold-Induction: 0.86
[1]; gene: ALEX3 protein
  Fold-Induction: 1.20
[1]; gene: ATP synthase, H+ transporting, mitochondrial F0 complex, subunit s (factor B)
  Fold-Induction: 0.87
[1]; gene: Acetyl-Coenzyme A acetyltransferase 2 (acetoacetyl Coenzyme A thiolase)
  Fold-Induction: 1.44
[1]; gene: Adenylate cyclase 9
  Fold-Induction: 1.50
[1]; gene: Ankyrin repeat domain 6
  Fold-Induction: 1.48
[1]; gene: Apoptosis inhibitor 5
  Fold-Induction: 1.21
[1]; gene: Choline kinase
  Fold-Induction: 1.16
[1]; gene: Chromosome 22 open reading frame 20
  Fold-Induction: 1.56
[1]; gene: Cyclic nucleotide gated channel alpha 1
  Fold-Induction: 0.79
[1]; gene: D15F37 (pseudogene)
  Fold-Induction: 1.39
[1]; gene: DEAD (Asp-Glu-Ala-Asp) box polypeptide 54
  Fold-Induction: 0.66
[1]; gene: Exportin 6
  Fold-Induction: 0.89
[1]; gene: Farnesyl-diphosphate farnesyltransferase 1
  Fold-Induction: 1.89
[1]; gene: Fatty-acid-Coenzyme A ligase, long-chain 3
  Fold-Induction: 1.31
[1]; gene: Glyoxalase I
  Fold-Induction: 1.12
[1]; gene: H63 breast cancer expressed gene
  Fold-Induction: 0.66
[1]; gene: HMT1 hnRNP methyltransferase-like 1
  Fold-Induction: 0.62
[1]; gene: Haspin
  Fold-Induction: 0.92
[1]; gene: Heterogeneous nuclear ribonucleoprotein A2/B1
  Fold-Induction: 1.30
[1]; gene: Homeo box B2
  Fold-Induction: 1.26
[1]; gene: Homo sapiens cDNA FLJ11590 fis, clone HEMBA1003758.
  Fold-Induction: 1.56
[1]; gene: Homo sapiens cDNA FLJ12075 fis, clone HEMBB1002425.
  Fold-Induction: 1.50
[1]; gene: Homo sapiens cDNA FLJ12932 fis, clone NT2RP2004897.
  Fold-Induction: 1.55
[1]; gene: Homo sapiens cDNA FLJ13272 fis, clone OVARC1001004.
  Fold-Induction: 1.58
[1]; gene: Homo sapiens cDNA FLJ26120 fis, clone SYN00419
  Fold-Induction: 2.26
[1]; gene: Homo sapiens cDNA FLJ33420 fis, clone BRACE2020028.
  Fold-Induction: 1.41
[1]; gene: Homo sapiens cDNA FLJ46153 fis, clone TESTI4001037
  Fold-Induction: 0.81
[1]; gene: Homo sapiens cDNA: FLJ23159 fis, clone LNG09628
  Fold-Induction: 1.44
[1]; gene: Homo sapiens full length insert cDNA clone ZE03A06
  Fold-Induction: 0.70
[1]; gene: Homo sapiens mRNA, cDNA DKFZp586O031 (from clone DKFZp586O031)
  Fold-Induction: 1.13
[1]; gene: Homo sapiens mRNA, cDNA DKFZp686L01105 (from clone DKFZp686L01105)
  Fold-Induction: 2.37 and 2.09 and 1.73
[1]; gene: Homo sapiens mRNA, cDNA DKFZp779K0112 (from clone DKFZp779K0112)
  Fold-Induction: 1.48
[1]; gene: Homo sapiens transcribed sequence with weak similarity to protein ref: NP_060265.1
  Fold-Induction: 1.46 and 1.22
[1]; gene: Homo sapiens, clone IMAGE: 5314747, mRNA
  Fold-Induction: 1.77
[1]; gene: Homo sapiens, clone IMAGE: 6205812, mRNA
  Fold-Induction: 1.85
[1]; gene: Hypothetical protein BC008207
  Fold-Induction: 0.86
[1]; gene: Hypothetical protein DKFZp761A132
  Fold-Induction: 0.70
[1]; gene: Hypothetical protein FLB8034 PRO2158
  Fold-Induction: 1.45
[1]; gene: Hypothetical protein FLJ10997 (ZNF654 zinc finger protein 654 [Homo sapiens])
  Fold-Induction: 1.16
[1]; gene: Hypothetical protein FLJ11577
  Fold-Induction: 1.35
[1]; gene: Hypothetical protein FLJ13611
  Fold-Induction: 1.39
[1]; gene: Hypothetical protein FLJ14639
  Fold-Induction: 1.24
[1]; gene: Hypothetical protein FLJ38499
  Fold-Induction: 1.32
[1]; gene: Hypothetical protein LOC125893
  Fold-Induction: 1.34
[1]; gene: Hypothetical protein LOC126661
  Fold-Induction: 1.49
[1]; gene: Hypothetical protein LOC283680
  Fold-Induction: 1.26
[1]; gene: Hypothetical protein MAC30
  Fold-Induction: 1.46
[1]; gene: Hypothetical protein MGC34695
  Fold-Induction: 1.61
[1]; gene: Hypothetical protein PRO1496
  Fold-Induction: 1.46
[1]; gene: Insulin induced gene 1
  Fold-Induction: 2.56
[1]; gene: Isopentenyl-diphosphate delta isomerase
  Fold-Induction: 1.78
[1]; gene: Jerky homolog-like (mouse)
  Fold-Induction: 1.23
[1]; gene: KIAA0101 gene product
  Fold-Induction: 1.23
[1]; gene: KIAA0335 gene product
  Fold-Induction: 1.38
[1]; gene: KIAA1450 protein
  Fold-Induction: 1.21
[1]; gene: Latrophilin 3
  Fold-Induction: 0.77
[1]; gene: Lipin 1
  Fold-Induction: 1.88
[1]; gene: Low density lipoprotein receptor (familial hypercholesterolemia)
  Fold-Induction: 1.78
[1]; gene: Machado-Joseph disease (spinocerebellar ataxia 39)
  Fold-Induction: 1.45
[1]; gene: Melan-A
  Fold-Induction: 0.60
[1]; gene: Mitochondrial ribosomal protein L30
  Fold-Induction: 1.42
[1]; gene: Mucin 4, tracheobronchial
  Fold-Induction: 0.79
[1]; gene: Mucolipin 3
  Fold-Induction: 1.39
[1]; gene: Natural killer-tumor recognition sequence
  Fold-Induction: 1.45 and 1.28
[1]; gene: Neurolysin (metallopeptidase M3 family)
  Fold-Induction: 1.41
[1]; gene: Nicotinamide nucleotide adenylyltransferase 2
  Fold-Induction: 0.73
[1]; gene: Pantothenate kinase 3
  Fold-Induction: 1.23
[1]; gene: Phorbol-12-myristate-13-acetate-induced protein 1
  Fold-Induction: 1.26
[1]; gene: Phosphodiesterase 4A, cAMP-specific (phosphodiesterase E2 dunce homolog, Drosophila)
  Fold-Induction: 0.78
[1]; gene: Pinin, desmosome associated protein
  Fold-Induction: 1.17
[1]; gene: Protocadherin 11 Y-linked
  Fold-Induction: 1.37
[1]; gene: Putative translation initiation factor
  Fold-Induction: 1.14
[1]; gene: Pyruvate dehydrogenase phosphatase isoenzyme 2
  Fold-Induction: 1.40
[1]; gene: Receptor-interacting factor 1
  Fold-Induction: 1.10
[1]; gene: Ring finger protein 125 (T-cell RING activation protein 1, TRAC-1)
  Fold-Induction: 3.36
[1]; gene: SKI-interacting protein
  Fold-Induction: 1.10
[1]; gene: SOCS box-containing WD protein SWiP-1
  Fold-Induction: 1.20
[1]; gene: SP140 nuclear body protein
  Fold-Induction: 0.78
[1]; gene: SPTF-associated factor 65 gamma
  Fold-Induction: 0.69
[1]; gene: Solute carrier family 2 (facilitated glucose transporter), member 6
  Fold-Induction: 1.76
[1]; gene: Solute carrier family 7, (cationic amino acid transporter, y+ system) member 11
  Fold-Induction: 1.67
[1]; gene: Squalene epoxidase
  Fold-Induction: 1.60
[1]; gene: Stearoyl-CoA desaturase (delta-9-desaturase)
  Fold-Induction: 1.41
[1]; gene: Sterol-C4-methyl oxidase-like
  Fold-Induction: 1.87
[1]; gene: Sterol-C5-desaturase (ERG3 delta-5-desaturase homolog, fungal)-like
  Fold-Induction: 1.37
[1]; gene: Surfactant, pulmonary-associated protein B
  Fold-Induction: 1.43
[1]; gene: Syntaxin 16
  Fold-Induction: 0.86
[1]; gene: Thyroid hormone receptor interactor 11
  Fold-Induction: 1.70
[1]; gene: Tumor necrosis factor (ligand) superfamily, member 9
  Fold-Induction: 1.47
[1]; gene: Ubiquitin specific protease 6 (Tre-2 oncogene)
  Fold-Induction: 1.38
[1]; gene: Ubiquitin specific protease 32
  Fold-Induction: 1.25
[1]; gene: Zinc finger protein 226
  Fold-Induction: 1.46
[1]; gene: Zinc finger protein 430
  Fold-Induction: 1.24
[1]; within 4 hours of the addition of NVX-207
  upregulation of INSIG-1: up to 3 fold
[2]; 518A2 cells, in combination with simvastatin
  effect on statin-induced cell death: reduces statin-induced cell death
[2]; NVX-207 0.5 μg/ml
  Survival in %: 94%
[2]; NVX-207 1.0 μg/ml
  Survival in %: 73%
[2]; NVX-207 2.0 μg/ml
  Survival in %: 26%
[2]; NVX-207 4.0 μg/ml
  Survival in %: 0%
